Measured values reported in paper PMC8887546, “Design and Synthesis of Brain Penetrant Glycopeptide Analogues of PACAP With Neuroprotective Potential for Traumatic Brain Injury and Parkinsonism” (Frontiers in drug discovery, 2022).

Key:
[1] = test system: Sprague Dawley rats, 6-OHDA lesion; assay: Amphetamine-induced rotations, mild 6-OHDA hemi-parkinsonian rat model (study 1); format: in vivo; settings: mild lesion (25%), 15 mg/kg i.p. 6 h prior to and 24 h post-lesion, 2 + 4 weeks, vs vehicle
Protocol: Rats were treated with 2LS98Lac or saline (vehicle) as outlined in the Schemes in Figures 9A,B via intraperitoneal (i.p.) injection (15 mg/kg). All animals were made hemi-parkinsonian with unilateral, striatal 6-hydroxydopamine (Sigma Aldrich, St. Louis, MO) injections. After surgery, behavioral assessments were done at 2- and 4-weeks post-surgery. 24 h after the last test animals were either euthanized and whole brains were harvested for future biochemical analysis or perfused and brains collected for immunohistochemistry and stereological assessment of tyrosine hydroxylase-positive (TH+) cells remaining in the SNc. In study 1: n = 16 each group were included, and all underwent the behavioral analysis: n = 16, and for the stereology in the SNc, n = 8 each group was used. […]
In order to pharmacologically assess the degree of dopaminergic (DA) depletion in the lesioned side, animals were given amphetamine, an indirectly acting DA agonist and placed into a plexiglass cylinder (38 cm tall × 38 cm across) enclosed in an open field box ([Yue et al., 2011]). Dextro-amphetamine in sterile 0.9% saline (Sigma-Aldrich) was injected i.p. at 5 mg/kg, and rotations were recorded from above using Logitech HD web cameras connected to an Acer Aspire SWS-015 computer. An observer blinded to the groups counted rotations in both the ipsilateral and contralateral rotations for the entire 70 min period. […]

[2] = test system: C57BL/6 mice, diffuse TBI; assay: Iba1 microglial skeletal analysis after TBI; format: in vivo, mouse; settings: 10 mg/kg i.p. 30 min prior to TBI, 15 DPI, cortex
Protocol: 30 min prior to TBI or sham injury, mice were randomly assigned to a therapeutic group and received an intraperitoneal injection of 2LS80Mel (10 mg/kg) or sterile saline (0.25 ml). Groups were as follows: TBI-2LS80Mel n = 17; TBI-vehicle n = 17; sham n = 22 (vehicle n = 11, 2LS80Mel n = 11).
For injury induction 24 h post-surgery, mice were re-anesthetized with 5% isoflurane delivered for 3 min. The cap was removed from the injury-hub assembly and the dura was visually inspected through the hub to ensure it was intact with no debris. The hub was then filled with normal saline and attached to an extension tube connected to the male end of the fluid percussion device (Custom Design and Fabrication, Virginia Commonwealth University, Richmond, VA). An injury of moderate severity for our injury model (1.4 atm) was administered by releasing the pendulum onto the fluid-filled cylinder following the return of a toe-pinch response. Sham mice underwent the same procedure except the pendulum was not released. Injured mice were monitored for presence of a forearm fencing response and righting reflex times were recorded as indicators of injury severity ([Hosseini and Lifshitz, 2009]). […] After spontaneously righting, mice were placed in a heated recovery cage and monitored until they were ambulatory (approximately 5–15 min) before being returned to their piezoelectric sleep cage (see below). […]

[2H]C([2H])([2H])C([2H])(C([2H])([2H])[2H])[C@]([2H])(NC(=O)[C@H](C)NC(=O)[C@H](C)NC(=O)[C@H](CC(C)C)NC(=O)[C@H](Cc1ccc(O)cc1)NC(=O)[C@H](CCCCN)NC(=O)[C@H](CCCCN)NC(=O)[C@@]([2H])(NC(=O)[C@H](C)NC(=O)[C@H](CC(C)C)NC(=O)[C@H](CCC(N)=O)NC(=O)[C@H](CCCCN)NC(=O)[C@H](CCCNC(=N)N)NC(=O)[C@H](Cc1ccc(O)cc1)NC(=O)[C@H](CCCNC(=N)N)NC(=O)[C@H](CO)NC(=O)[C@H](Cc1ccc(O)cc1)NC(=O)[C@H](CO)NC(=O)[C@H](CC(=O)O)NC(=O)[C@@H](NC(=O)[C@H](Cc1ccccc1)NC(=O)[C@@H](NC(=O)CNC(=O)[C@H](CC(=O)O)NC(=O)[C@H](CO)NC(=O)[C@@H](N)Cc1c[nH]cn1)[C@@H](C)CC)[C@@H](C)O)C([2H])(C([2H])([2H])[2H])C([2H])([2H])[2H])C(=O)N[C@@H](CC(C)C)C(=O)N[C@@H](CO[C@@H]1O[C@H](CO)[C@@H](O[C@@H]2O[C@H](CO)[C@H](O)[C@H](O)[C@H]2O)[C@H](O)[C@H]1O)C(N)=O [Compound 2LS98Lac]
Cumulative contralateral amphetamine-induced rotations [1]: significantly decreased

CC[C@H](C)[C@H](NC(=O)CNC(=O)[C@H](CC(=O)O)NC(=O)[C@H](CO)NC(=O)[C@@H](N)Cc1c[nH]cn1)C(=O)N[C@@H](Cc1ccccc1)C(=O)N[C@H](C(=O)N[C@@H](CC(=O)O)C(=O)N[C@@H](CO)C(=O)N[C@@H](Cc1ccc(O)cc1)C(=O)N[C@@H](CO)C(=O)N[C@@H](CCCNC(=N)N)C(=O)N[C@@H](Cc1ccc(O)cc1)C(=O)N[C@@H](CCCNC(=N)N)C(=O)N[C@@H](CCCCN)C(=O)N[C@@H](CCC(N)=O)C(=O)N[C@@H](CC(C)C)C(=O)N[C@@H](C)C(=O)N[C@H](C(=O)N[C@@H](CCCCN)C(=O)N[C@@H](CCCCN)C(=O)N[C@@H](Cc1ccc(O)cc1)C(=O)N[C@@H](CC(C)C)C(=O)N[C@@H](C)C(=O)N[C@@H](C)C(=O)N[C@H](C(=O)N[C@@H](CC(C)C)C(=O)N[C@@H](CO[C@@H]1O[C@H](CO[C@H]2O[C@H](CO)[C@H](O)[C@H](O)[C@H]2O)[C@@H](O)[C@H](O)[C@H]1O)C(N)=O)C(C)C)C(C)C)[C@@H](C)O [Compound 2LS80Mel]
Microglial ramification [2]: no significant differences
